From ChEMBL document CHEMBL1201862, “PubChem BioAssay data set” (2004) come the findings set out here.

SMILES strings stand for the structures. The source made the active and inactive calls. A value given as a limit tells only on which side of the number the result lay.

For experiment [1], the target named is T1, High affinity choline transporter 1 (Homo sapiens, UniProt Q9GZV3).
T1 sequence (Q9GZV3 whole entry): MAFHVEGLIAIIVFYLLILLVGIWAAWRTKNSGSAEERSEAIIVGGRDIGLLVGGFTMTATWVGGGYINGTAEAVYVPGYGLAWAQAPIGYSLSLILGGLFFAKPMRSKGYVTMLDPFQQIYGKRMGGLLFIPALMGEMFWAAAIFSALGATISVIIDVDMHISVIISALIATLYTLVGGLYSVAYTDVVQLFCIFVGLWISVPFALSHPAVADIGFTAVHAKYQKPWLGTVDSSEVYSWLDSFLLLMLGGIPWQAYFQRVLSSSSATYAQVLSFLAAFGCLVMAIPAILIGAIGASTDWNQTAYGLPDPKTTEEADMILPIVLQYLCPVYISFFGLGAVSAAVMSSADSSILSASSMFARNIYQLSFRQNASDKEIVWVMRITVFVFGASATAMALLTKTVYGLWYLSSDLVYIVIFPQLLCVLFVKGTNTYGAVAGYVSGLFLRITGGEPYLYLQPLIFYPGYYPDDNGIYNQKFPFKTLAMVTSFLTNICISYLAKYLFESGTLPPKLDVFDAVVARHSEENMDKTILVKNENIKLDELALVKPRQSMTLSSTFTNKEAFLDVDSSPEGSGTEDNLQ
Nature of the experiment: human choline transporter potentiators, potency – cell-based, 10-point CRC, membrane potential dye, dose response (AID 602376). The experiment is classed as functional.

For experiment [2], the target named is Botulinum neurotoxin type A (Clostridium botulinum (strain Hall / ATCC 3502 / NCTC 13319 / Type A), UniProt P0DPI1). Nature of the experiment: High-throughput multiplex microsphere dose response for inhibitors of toxin protease, specifically Botulinum neurotoxin light chain A protease, compounds from Cherry Pick 01. The note with it: read-out: EC50_MICROM. The format is functional.

The subject of experiment [3] is INS1. Nature of the experiment: INS-1E survival protection against cytokine death – cell-based, luminescence, retest, dose response (AID 449756).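 Note: cell death triggered by IL-1 beta plus TNF-alpha plus IFN-gamma mixture; protective hits raise ATP signal compared with cytokine alone wells.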 As to conditions: Rattus norvegicus. The format is functional.
Experiment [4] is described as follows: microbe, parasite or virus in culture. The format is functional. The note with it: Mycobacterium tuberculosis.
Experiment [5] concerns the target Glycogen synthase kinase-3 beta (Homo sapiens, UniProt P49841). The format is functional.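 Note: value comes from a broad kinome profiling panel, with GSK3B as the panel member.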
For experiment [6], the target named is Mitogen-activated protein kinase kinase kinase kinase 4 (Homo sapiens, UniProt O95819). The format is functional.
Experiment [7] concerns the target Dual specificity protein kinase CLK4 (Homo sapiens, UniProt Q9HAZ1). The format is functional.
The target of experiment [8] is Cell division cycle 7-related protein kinase (Homo sapiens, UniProt O00311). The experiment is classed as functional.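 Note: value obtained from a kinome-wide kinase panel.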
Experiment [9] concerns the target Serine/threonine-protein kinase pim-1 (Homo sapiens, UniProt P11309). The experiment is classed as functional.
Experiment [10] has as its target Cyclin-dependent kinase 2 (Homo sapiens, UniProt P24941). The experiment is classed as functional.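 Note: CDK2 measured as one member of a broad kinome profiling panel.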
Experiment [11] has as its target Homeodomain-interacting protein kinase 2 (Homo sapiens, UniProt Q9H2X6). The experiment is classed as functional.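 Note: measured within a kinome-wide kinase profiling panel, HIPK2 being one panel member.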
The target in experiment [12] is Interleukin-1 receptor-associated kinase 4 (Homo sapiens, UniProt Q9NWZ3). The format is functional.
Experiment [13] has as its target cAMP-dependent protein kinase catalytic subunit alpha (Homo sapiens, UniProt P17612). The experiment is classed as functional.
In experiment [14] the target is T2, Sentrin-specific protease 7 (Homo sapiens, UniProt Q9BQF6).
T2 sequence (Q9BQF6 whole entry): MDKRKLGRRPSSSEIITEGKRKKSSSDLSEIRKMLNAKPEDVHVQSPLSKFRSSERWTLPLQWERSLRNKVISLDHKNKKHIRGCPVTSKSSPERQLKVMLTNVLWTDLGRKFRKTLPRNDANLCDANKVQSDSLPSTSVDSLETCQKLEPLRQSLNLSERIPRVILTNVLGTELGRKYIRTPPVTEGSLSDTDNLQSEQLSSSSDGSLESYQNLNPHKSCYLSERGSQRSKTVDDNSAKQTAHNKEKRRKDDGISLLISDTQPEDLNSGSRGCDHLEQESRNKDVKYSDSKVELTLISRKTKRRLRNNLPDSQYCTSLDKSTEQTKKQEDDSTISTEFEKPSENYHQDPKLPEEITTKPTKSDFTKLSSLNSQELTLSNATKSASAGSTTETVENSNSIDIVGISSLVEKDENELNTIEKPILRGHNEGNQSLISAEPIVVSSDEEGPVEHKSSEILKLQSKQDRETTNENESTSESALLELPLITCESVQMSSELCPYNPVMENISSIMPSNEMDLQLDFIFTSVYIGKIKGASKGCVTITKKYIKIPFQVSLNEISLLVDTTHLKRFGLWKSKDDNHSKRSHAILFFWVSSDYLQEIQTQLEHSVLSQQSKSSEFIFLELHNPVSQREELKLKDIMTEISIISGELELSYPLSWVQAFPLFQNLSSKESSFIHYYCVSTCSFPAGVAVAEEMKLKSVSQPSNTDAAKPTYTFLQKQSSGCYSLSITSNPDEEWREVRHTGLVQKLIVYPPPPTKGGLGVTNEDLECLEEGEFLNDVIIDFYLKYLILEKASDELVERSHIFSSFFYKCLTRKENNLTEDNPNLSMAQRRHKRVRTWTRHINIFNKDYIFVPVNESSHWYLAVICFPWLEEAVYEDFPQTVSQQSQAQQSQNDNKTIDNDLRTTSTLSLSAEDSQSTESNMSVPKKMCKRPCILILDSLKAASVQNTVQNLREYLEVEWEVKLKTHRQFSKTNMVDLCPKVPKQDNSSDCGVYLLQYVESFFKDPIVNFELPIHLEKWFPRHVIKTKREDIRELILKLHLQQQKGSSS
Nature of the experiment: inhibition of human SENP7 cleavage activity – biochemical, luminescence, set 2, SAR follow-up (AID 588600). The experiment is classed as functional.

Experiment [15] deals with T3, Caspase-3 (Homo sapiens, UniProt P42574).
T3 sequence (P42574 whole entry): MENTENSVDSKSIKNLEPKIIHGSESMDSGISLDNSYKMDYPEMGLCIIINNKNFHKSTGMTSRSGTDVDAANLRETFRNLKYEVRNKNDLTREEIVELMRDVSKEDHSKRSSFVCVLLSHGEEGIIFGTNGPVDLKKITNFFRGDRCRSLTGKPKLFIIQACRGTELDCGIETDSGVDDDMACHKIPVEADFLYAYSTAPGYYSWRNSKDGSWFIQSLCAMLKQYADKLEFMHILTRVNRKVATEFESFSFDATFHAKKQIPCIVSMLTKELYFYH
The experiment can be described thus: inhibition of recombinant caspase-3 activity – biochemical, luminescence, set 2, selectivity assay for SENP protease inhibitor project, SAR follow-up (AID 588599). The experiment is classed as functional.

The target of experiment [16] is T4, Sentrin-specific protease 6 (Homo sapiens, UniProt Q9GZR1).
T4 sequence (Q9GZR1 whole entry): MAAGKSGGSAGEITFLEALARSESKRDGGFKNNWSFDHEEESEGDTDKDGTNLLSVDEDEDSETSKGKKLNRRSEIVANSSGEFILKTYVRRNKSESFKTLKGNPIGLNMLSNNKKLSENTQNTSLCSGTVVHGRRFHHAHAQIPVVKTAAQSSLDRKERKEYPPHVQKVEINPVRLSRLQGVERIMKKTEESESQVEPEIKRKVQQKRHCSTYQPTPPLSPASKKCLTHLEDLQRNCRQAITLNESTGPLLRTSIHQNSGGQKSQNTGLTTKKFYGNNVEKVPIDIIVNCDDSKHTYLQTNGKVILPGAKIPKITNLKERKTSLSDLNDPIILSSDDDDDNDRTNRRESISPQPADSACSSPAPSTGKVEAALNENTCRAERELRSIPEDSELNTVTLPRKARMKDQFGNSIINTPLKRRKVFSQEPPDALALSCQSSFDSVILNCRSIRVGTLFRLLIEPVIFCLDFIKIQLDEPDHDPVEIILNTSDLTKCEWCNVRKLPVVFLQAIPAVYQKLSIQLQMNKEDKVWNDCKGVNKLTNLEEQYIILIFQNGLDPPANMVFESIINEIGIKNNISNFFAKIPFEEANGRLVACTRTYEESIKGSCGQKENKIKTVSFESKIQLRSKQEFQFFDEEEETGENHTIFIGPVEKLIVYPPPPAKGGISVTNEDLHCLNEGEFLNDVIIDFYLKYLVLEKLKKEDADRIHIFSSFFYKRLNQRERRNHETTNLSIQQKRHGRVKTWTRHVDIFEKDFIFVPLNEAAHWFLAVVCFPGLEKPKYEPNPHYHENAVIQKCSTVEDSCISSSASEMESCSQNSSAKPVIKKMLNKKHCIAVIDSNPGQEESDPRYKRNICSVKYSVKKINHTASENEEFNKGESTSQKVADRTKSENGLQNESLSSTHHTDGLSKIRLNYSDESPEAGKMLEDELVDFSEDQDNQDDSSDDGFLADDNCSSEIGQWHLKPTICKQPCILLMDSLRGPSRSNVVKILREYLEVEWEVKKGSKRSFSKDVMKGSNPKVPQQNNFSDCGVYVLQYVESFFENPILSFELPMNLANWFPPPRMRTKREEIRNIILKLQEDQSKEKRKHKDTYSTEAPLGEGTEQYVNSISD
The experiment can be described thus: inhibition of human SENP6 catalytic domain – biochemical, luminescence, set 2, SAR follow-up (AID 588598). The experiment is classed as functional.

Experiment [17] has as its target T5, Sentrin-specific protease 8 (Homo sapiens, UniProt Q96LD8).
T5 sequence (Q96LD8 whole entry): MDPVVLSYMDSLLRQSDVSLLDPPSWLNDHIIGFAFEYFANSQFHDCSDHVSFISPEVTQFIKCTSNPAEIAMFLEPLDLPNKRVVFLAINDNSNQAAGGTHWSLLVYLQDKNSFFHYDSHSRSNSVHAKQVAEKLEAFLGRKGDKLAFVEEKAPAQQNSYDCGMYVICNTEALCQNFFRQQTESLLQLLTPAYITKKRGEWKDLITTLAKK
Nature of the experiment: inhibition of sentrin protease 8 – biochemical, luminescence, set 2, SAR follow-up (AID 588601). The experiment is classed as functional.

In experiment [18] the target is Latent membrane protein 1 (Human herpesvirus 4 (strain B95-8), UniProt P03230). Nature of the experiment: LMP1 TES1 pathway selectivity over dsRED control – imaging, HEK293T, dual-color eGFP/dsRED, cherry-picks, selectivity assay for LMP1 NF-kB inhibitor project, dose response (AID 588398). The experiment is classed as functional, cell-based.
Experiment [19] is described as follows: bead-based luminescence quenchers, dual-tagged ARNT – biochemical, AlphaScreen, cherry-pick, artefact control for ARNT-TACC3 interaction inhibitor project, dose response (AID 651705).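 Note: AlphaScreen bead proximity signal that flags compounds interfering with the detection technology; potency reflects signal decrease which marks the compound as an assay artifact.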 The experiment is classed as functional.
For experiment [20], the target named is T3, Caspase-3. The experiment can be described thus: Dose-response confirmation of uHTS inhibitor hits of Sentrin-Specific Protease 8 in a Caspase-3 Fluorescence assay. The format is functional.
Experiment [21] has as its target Glutathione-S-transferase (Schistosoma japonicum, UniProt Q26513). The experiment can be described thus: GST-antibody interaction or FRET quenching – biochemical, TR-FRET, artefact control for Vif-APOBEC3G degradation inhibitor project, dose response (AID 1117362). The format is functional.
Experiment [22] has as its target T5, Sentrin-specific protease 8. The experiment is classed as functional.
The nature of experiment [23]: viability loss in THP-1 monocytes – THP-1 cells, cytotoxicity control for Vif-APOBEC3G degradation inhibitor project, dose response (AID 1117359). The note with it: THP-1. The format is functional.
The target of experiment [24] is T6, DNA repair protein RAD52 homolog (Homo sapiens, UniProt P43351).
T6 sequence (P43351 whole entry): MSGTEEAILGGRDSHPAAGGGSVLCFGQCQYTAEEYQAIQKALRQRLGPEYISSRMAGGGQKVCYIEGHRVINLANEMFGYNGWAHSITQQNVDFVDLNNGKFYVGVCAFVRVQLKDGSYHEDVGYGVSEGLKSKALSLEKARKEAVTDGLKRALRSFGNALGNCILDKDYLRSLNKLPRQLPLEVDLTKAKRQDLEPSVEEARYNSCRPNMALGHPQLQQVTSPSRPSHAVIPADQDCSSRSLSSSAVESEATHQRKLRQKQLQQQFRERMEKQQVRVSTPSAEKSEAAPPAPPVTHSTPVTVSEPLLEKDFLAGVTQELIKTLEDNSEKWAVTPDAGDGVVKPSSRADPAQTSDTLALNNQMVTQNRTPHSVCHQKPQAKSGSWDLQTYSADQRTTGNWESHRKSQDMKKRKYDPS
The format is functional, biochemical.

Experiment [25] concerns the target T5, Sentrin-specific protease 8. The experiment is classed as functional. This is another data set of the same source.
The target in experiment [26] is Genome polyprotein (dengue virus type 2, UniProt P29990). Nature of the experiment: flavivirus cap methylation enzyme inhibition – biochemical, confirmation dose response, primary screen (AID 588689). The experiment is classed as functional.

Dual specificity protein kinase CLK4, sequence (Q9HAZ1 whole entry): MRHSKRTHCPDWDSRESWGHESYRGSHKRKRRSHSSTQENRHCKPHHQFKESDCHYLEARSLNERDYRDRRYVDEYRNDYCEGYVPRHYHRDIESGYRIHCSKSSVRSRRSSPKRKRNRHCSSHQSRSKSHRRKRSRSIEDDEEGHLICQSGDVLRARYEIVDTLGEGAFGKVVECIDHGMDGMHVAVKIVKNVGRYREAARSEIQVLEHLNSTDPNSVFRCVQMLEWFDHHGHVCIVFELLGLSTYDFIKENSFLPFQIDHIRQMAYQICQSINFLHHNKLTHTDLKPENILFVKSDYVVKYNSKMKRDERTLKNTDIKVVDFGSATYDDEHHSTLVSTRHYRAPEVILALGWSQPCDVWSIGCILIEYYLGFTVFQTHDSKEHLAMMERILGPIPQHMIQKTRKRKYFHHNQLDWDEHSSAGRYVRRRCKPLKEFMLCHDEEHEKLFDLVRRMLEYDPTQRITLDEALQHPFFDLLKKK
Glutathione-S-transferase, sequence (Q26513 whole entry): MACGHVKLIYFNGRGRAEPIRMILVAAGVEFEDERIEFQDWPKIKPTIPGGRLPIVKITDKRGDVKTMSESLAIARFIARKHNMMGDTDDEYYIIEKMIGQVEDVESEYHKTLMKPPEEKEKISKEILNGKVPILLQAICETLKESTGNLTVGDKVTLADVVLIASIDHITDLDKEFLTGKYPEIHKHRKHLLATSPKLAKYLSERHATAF
Mitogen-activated protein kinase kinase kinase kinase 4, sequence (O95819 whole entry): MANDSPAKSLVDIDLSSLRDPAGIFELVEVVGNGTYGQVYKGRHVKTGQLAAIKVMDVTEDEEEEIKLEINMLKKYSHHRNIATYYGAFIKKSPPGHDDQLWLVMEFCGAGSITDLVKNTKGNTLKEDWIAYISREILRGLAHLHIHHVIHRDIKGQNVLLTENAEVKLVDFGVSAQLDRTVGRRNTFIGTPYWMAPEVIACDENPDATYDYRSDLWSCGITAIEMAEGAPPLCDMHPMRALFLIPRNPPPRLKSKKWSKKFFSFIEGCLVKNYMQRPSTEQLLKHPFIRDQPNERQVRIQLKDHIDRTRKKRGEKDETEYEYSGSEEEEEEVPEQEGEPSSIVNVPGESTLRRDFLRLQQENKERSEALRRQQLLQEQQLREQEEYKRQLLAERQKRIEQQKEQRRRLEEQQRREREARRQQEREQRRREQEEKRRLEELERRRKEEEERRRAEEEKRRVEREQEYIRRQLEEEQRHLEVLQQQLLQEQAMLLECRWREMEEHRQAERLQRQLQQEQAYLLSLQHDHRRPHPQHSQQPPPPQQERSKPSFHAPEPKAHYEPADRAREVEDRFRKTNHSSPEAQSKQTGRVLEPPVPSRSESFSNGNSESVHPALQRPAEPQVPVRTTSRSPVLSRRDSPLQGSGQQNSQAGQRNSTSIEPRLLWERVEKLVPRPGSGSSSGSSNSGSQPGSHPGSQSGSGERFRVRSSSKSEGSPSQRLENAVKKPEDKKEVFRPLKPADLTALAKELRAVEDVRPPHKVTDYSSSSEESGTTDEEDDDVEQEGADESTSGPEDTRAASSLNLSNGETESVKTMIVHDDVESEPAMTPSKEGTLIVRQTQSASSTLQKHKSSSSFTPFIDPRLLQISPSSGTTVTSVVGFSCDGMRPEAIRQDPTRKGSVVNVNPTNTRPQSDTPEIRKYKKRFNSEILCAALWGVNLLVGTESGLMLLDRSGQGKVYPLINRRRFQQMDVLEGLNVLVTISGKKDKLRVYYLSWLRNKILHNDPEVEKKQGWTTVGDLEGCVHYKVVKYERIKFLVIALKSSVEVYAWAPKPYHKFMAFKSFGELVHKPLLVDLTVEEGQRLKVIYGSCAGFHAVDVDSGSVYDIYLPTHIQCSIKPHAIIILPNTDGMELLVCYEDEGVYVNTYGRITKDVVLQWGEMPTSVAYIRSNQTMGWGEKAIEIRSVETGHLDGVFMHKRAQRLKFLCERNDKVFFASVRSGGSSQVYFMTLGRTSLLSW
Latent membrane protein 1, sequence (P03230 whole entry): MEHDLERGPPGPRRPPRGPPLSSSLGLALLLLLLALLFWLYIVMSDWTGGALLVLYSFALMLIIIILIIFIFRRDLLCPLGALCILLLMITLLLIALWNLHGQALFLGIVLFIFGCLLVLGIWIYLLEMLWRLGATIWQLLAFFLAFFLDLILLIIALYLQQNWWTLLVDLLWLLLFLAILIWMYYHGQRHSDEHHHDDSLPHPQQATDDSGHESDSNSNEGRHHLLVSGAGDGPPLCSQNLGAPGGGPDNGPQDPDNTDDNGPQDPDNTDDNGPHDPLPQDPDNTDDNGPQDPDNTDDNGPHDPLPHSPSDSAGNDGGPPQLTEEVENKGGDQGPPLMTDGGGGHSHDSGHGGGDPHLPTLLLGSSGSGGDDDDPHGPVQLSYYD
Cell division cycle 7-related protein kinase, sequence (O00311 whole entry): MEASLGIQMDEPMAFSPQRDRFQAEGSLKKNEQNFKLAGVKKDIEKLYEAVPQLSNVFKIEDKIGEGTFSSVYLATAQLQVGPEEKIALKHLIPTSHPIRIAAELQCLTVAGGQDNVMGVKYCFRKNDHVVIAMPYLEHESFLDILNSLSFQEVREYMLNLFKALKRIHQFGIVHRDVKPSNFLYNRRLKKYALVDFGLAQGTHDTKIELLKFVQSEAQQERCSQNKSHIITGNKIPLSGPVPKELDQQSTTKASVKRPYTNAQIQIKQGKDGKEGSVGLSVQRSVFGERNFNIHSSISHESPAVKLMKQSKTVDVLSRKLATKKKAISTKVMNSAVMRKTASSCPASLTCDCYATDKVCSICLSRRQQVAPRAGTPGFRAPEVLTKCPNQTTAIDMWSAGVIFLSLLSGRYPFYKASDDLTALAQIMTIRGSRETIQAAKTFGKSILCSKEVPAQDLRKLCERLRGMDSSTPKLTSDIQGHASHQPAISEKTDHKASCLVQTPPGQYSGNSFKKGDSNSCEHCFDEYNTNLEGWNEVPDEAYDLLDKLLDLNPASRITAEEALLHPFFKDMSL
Serine/threonine-protein kinase pim-1, sequence (P11309 whole entry): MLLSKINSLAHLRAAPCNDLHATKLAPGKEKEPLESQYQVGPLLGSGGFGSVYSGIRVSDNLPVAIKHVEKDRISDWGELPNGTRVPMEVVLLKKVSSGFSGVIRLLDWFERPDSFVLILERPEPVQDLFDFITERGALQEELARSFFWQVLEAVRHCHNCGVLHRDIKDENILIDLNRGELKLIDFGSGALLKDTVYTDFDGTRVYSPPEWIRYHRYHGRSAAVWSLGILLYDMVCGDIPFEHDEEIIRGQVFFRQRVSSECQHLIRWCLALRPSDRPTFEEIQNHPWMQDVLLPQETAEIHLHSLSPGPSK
Homeodomain-interacting protein kinase 2, sequence (Q9H2X6 whole entry): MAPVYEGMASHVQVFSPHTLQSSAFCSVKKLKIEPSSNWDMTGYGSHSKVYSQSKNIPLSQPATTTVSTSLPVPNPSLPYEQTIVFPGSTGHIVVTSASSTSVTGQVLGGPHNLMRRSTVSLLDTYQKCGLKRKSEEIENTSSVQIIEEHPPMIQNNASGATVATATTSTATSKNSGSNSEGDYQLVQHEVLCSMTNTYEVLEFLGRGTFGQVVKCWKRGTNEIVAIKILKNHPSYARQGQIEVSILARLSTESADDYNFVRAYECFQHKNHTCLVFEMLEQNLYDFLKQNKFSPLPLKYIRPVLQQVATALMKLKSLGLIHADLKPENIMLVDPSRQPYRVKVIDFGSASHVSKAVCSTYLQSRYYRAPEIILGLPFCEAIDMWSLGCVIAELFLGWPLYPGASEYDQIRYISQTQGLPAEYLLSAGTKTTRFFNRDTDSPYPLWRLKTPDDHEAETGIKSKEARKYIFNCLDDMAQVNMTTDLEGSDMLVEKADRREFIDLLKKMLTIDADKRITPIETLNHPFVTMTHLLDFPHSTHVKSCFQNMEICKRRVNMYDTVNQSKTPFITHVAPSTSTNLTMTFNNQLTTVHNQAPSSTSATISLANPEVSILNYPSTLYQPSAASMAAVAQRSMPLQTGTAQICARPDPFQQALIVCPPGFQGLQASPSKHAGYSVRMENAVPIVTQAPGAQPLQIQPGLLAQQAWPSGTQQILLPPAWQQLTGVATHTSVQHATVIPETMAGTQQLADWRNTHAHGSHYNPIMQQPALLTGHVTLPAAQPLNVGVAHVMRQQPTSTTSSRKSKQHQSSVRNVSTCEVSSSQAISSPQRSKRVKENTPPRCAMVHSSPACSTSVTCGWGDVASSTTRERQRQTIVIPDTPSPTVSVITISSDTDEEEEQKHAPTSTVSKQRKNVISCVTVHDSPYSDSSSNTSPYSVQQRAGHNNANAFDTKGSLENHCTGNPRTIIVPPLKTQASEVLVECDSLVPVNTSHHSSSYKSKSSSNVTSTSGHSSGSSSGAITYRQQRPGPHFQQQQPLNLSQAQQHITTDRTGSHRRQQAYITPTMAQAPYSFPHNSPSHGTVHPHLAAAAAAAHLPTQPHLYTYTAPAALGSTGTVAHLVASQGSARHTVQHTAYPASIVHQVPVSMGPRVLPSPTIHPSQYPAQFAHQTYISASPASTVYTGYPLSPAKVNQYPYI
Glycogen synthase kinase-3 beta, sequence (P49841 whole entry): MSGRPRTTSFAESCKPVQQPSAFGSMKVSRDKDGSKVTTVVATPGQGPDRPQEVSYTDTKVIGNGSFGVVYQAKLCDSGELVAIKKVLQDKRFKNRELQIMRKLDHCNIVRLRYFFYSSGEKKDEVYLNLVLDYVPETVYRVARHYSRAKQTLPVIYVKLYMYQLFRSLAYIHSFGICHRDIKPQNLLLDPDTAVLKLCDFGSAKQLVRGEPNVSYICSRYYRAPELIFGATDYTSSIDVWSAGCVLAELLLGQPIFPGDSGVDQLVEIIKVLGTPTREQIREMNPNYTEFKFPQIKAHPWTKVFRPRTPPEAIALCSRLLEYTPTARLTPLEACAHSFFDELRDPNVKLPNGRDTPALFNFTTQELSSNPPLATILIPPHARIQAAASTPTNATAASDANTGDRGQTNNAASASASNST

On to `CCCCCCCCC1=NCCc2c1[nH]c1ccccc21`, for which the EC50 in [1] was 13.7 µM (active).
Regarding `O=c1c(Cl)c2oc3ccccc3nc-2c2ccccc12`, the EC50 in [2] was 12.4 µM (active). Also, in experiment [3], the AC50 is 2.61 µM (active). For the same compound, the CC50 in experiment [4] is > 40 µM (active).
With `Cn1cc(-c2ccccc2)c2nc(-c3ccncc3)cc(=O)n21`, the inhibitory constant (Ki) in [5] is 0.126 µM (active); in experiment [6], 1.26 µM (active); in experiment [7], 0.0316 µM (active); in [8], 0.0158 µM (active); in [9], 2.51 µM (active); in experiment [10], > 7.94 µM (inactive). Also, the figures for the Ki in experiment [11], in experiment [12] and in experiment [13] were 0.1 µM (active), > 10 µM (inactive) and 5.01 µM (active), respectively.
In the case of `COc1cccc2sc(NC(=O)c3ccc(OCc4nccn4C)cc3)nc12`, the IC50 was > 99 µM (inactive) in experiment [14], 89.9 µM (active) in experiment [15], 77.2 µM (active) in experiment [16] and 77.4 µM (active) in [17].
Turning to `COc1cc(NCCCCCCN)c2ncccc2c1OC`, the AC50 in experiment [18] is 34.4 µM (active); in experiment [19] it was 132 µM (active); in experiment [24] it was 0.87 µM (active). Further, the IC50 in experiment [20] was 4.23 µM (active); in [21], 2.53 µM (active); in experiment [22], 0.208 µM (active); in experiment [25], 0.434 µM (active); in [26] it was > 100 µM (active). The CC50 in experiment [23] is > 40 µM (active).
